Reference: patent US20250230193A1, “CYCLIC COMPOUND HAVING SELECTIVE KRAS INHIBITORY EFFECT ON HRAS AND NRAS” (CHUGAI SEIYAKU KABUSHIKI KAISHA, priority 2022, published 2025)

Tests used:
[1] = biological target: GDP-bound NRAS wild-type protein (Homo sapiens, UniProt P01111); test: Binding to NRAS by surface plasmon resonance (SPR), Single Cycle Kinetics; conditions: KD ratio, GDP-bound NRAS wild-type vs GDP-bound KRAS wild-type, SPR
[2] = biological target: GDP-bound HRAS wild-type protein (Homo sapiens, UniProt P01112); test: Binding to HRAS by surface plasmon resonance (SPR), Single Cycle Kinetics; conditions: KD ratio, GDP-bound HRAS wild-type vs GDP-bound KRAS wild-type, SPR
Chain of GDP-bound HRAS wild-type protein (P01112 whole entry): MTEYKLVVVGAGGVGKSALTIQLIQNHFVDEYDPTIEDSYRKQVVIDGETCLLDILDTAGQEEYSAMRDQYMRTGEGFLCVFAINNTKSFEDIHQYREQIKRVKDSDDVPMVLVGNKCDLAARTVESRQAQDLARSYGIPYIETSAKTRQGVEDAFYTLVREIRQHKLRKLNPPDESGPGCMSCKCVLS

Chain of GDP-bound NRAS wild-type protein (P01111 whole entry): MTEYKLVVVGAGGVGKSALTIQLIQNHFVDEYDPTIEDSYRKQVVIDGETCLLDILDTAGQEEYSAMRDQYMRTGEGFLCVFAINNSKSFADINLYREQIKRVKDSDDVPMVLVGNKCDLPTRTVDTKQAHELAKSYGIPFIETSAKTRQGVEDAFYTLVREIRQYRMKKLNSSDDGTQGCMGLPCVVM

| Structure (SMILES) | NRAS/KRAS (ratio of KD value for NRAS to KD value for KRAS) [1] | HRAS/KRAS (ratio of KD value for HRAS to KD value for KRAS) [2] |
| --- | --- | --- |
| CC[C@H](C)[C@@H]1NC(=O)[C@H](CC(C)C)N(C)C(=O)C[C@@H](C(=O)N(C)C)N(C)C(=O)[C@H](C2CCCC2)N(C)C(=O)C2(CCC2)NC(=O)[C@@H]2C[C@@H](C)CN2C(=O)[C@H](CCc2ccc(C(F)(F)F)c(OC)c2)NC(=O)CN(C)C(=O)[C@H](Cc2ccc(C)cc2)N2CC/C=C\C[C@@H](C2=O)N(C)C(=O)CN(C)C1=O [PP1867] | A (a compound having 10 or more and less than 20 is denoted as A) | B (a compound having 3 or more and less than 10 is denoted as B) |
| CCO[C@@H]1C[C@H]2C(=O)NC3(CCC3)C(=O)N(C)[C@@H](C3CCCC3)C(=O)N(C)[C@H](C(=O)N(C)CC)CC(=O)N(C)[C@@H](CC)C(=O)N[C@@H]([C@@H](C)CC)C(=O)N(C)CC(=O)N(C)[C@H]3C/C=C\CCN(C3=O)[C@@H](Cc3ccc(C)cc3)C(=O)N(C)CC(=O)N[C@@H](CCc3ccc(C(F)(F)F)c(OC)c3)C(=O)N2C1 [PP1869] | A (a compound having 10 or more and less than 20 is denoted as A) | A (a compound having 10 or more and less than 20 is denoted as A) |
| CC[C@H](C)[C@@H]1NC(=O)[C@H](CC)N(C)C(=O)C[C@@H](C(=O)N(C)CC)N(C)C(=O)[C@H](C2CCCC2)N(C)C(=O)C2(CC(C)(C)C2)NC(=O)[C@@H]2C[C@@H](C)CN2C(=O)[C@H](CCc2ccc(C(F)(F)F)c(OC)c2)NC(=O)CN(C)C(=O)[C@H](Cc2ccc(C)cc2)N2CC/C=C\C[C@@H](C2=O)N(C)C(=O)CN(C)C1=O [PP1870] | A (a compound having 10 or more and less than 20 is denoted as A) | A (a compound having 10 or more and less than 20 is denoted as A) |
| CCC[C@H]1C(=O)N[C@@H]([C@@H](C)CC)C(=O)N(C)CC(=O)N(C)[C@H]2C/C=C\CCN(C2=O)[C@@H](Cc2ccc(C)cc2)C(=O)N(C)CC(=O)N[C@@H](CCc2ccc(C(F)(F)F)c(OC)c2)C(=O)N2C[C@H](OCC)C[C@H]2C(=O)NC2(CCC2)C(=O)N(C)[C@@H](C2CCCC2)C(=O)N(C)[C@H](C(=O)N(C)C)CC(=O)N1C [PP1871] | A (a compound having 10 or more and less than 20 is denoted as A) | A (a compound having 10 or more and less than 20 is denoted as A) |
| CCO[C@@H]1C[C@H]2C(=O)NC3(CC(C)(C)C3)C(=O)N(C)[C@@H](C3CCCC3)C(=O)N(C)[C@H](C(=O)N(C)CC)CC(=O)N(C)[C@@H](CC)C(=O)N[C@@H]([C@@H](C)CC)C(=O)N(C)CC(=O)N(C)[C@H]3C/C=C\CCN(C3=O)[C@@H](Cc3ccc(C)cc3)C(=O)N(C)CC(=O)N[C@@H](CCc3ccc(C(F)(F)F)c(OC)c3)C(=O)N2C1 [PP1872] | A (a compound having 10 or more and less than 20 is denoted as A) | A (a compound having 10 or more and less than 20 is denoted as A) |
| CCO[C@@H]1C[C@H]2C(=O)NC3(CC(C)(C)C3)C(=O)N(C)[C@@H](C3CCCC3)C(=O)N(C)[C@H](C(=O)N(C)C)CC(=O)N(C)[C@@H](CC)C(=O)N[C@@H]([C@@H](C)CC)C(=O)N(C)CC(=O)N(C)[C@H]3C/C=C\CCN(C3=O)[C@@H](Cc3ccc(C)cc3)C(=O)N(C)CC(=O)N[C@@H](CCc3ccc(C(F)(F)F)c(OC)c3)C(=O)N2C1 [PP1873] | A (a compound having 10 or more and less than 20 is denoted as A) | B (a compound having 3 or more and less than 10 is denoted as B) |
| CC[C@H](C)[C@@H]1NC(=O)[C@H](CC)N(C)C(=O)C[C@@H](C(=O)N(C)CC)N(C)C(=O)[C@H](C2CCCC2)N(C)C(=O)C2(CC(C)(C)C2)NC(=O)[C@@H]2C[C@H](C)CN2C(=O)[C@H](CCc2ccc(C(F)(F)F)c(Cl)c2)NC(=O)CN(C)C(=O)[C@H](Cc2ccc(C)cc2)N2CC/C=C\C[C@@H](C2=O)N(C)C(=O)CN(C)C1=O [PP1874] | A (a compound having 10 or more and less than 20 is denoted as A) | A (a compound having 10 or more and less than 20 is denoted as A) |
| CC[C@H](C)[C@@H]1NC(=O)[C@H](CC)N(C)C(=O)C[C@@H](C(=O)N(C)CC)N(C)C(=O)[C@H](C2CCCC2)N(C)C(=O)C2(CC(C)(C)C2)NC(=O)[C@@H]2C[C@@H](C)CN2C(=O)[C@H](CCc2ccc(C(F)(F)F)c(Cl)c2)NC(=O)CN(C)C(=O)[C@H](Cc2ccc(C)cc2)N2CC/C=C\C[C@@H](C2=O)N(C)C(=O)CN(C)C1=O [PP1876] | A (a compound having 10 or more and less than 20 is denoted as A) | A (a compound having 10 or more and less than 20 is denoted as A) |
| CCO[C@@H]1C[C@H]2C(=O)NC3(CCC3)C(=O)N(C)[C@@H](C3CCCC3)C(=O)N(C)[C@H](C(=O)N(C)CC)CC(=O)N(C)[C@@H](CC3CC3)C(=O)N[C@@H]([C@@H](C)CC)C(=O)N(C)CC(=O)N(C)[C@H]3C/C=C\CCN(C3=O)[C@@H](Cc3ccc(C)cc3)C(=O)N(C)CC(=O)N[C@@H](CCc3ccc(C(F)(F)F)c(OC)c3)C(=O)N2C1 [PP1879] | A (a compound having 10 or more and less than 20 is denoted as A) | B (a compound having 3 or more and less than 10 is denoted as B) |
| CCO[C@@H]1C[C@H]2C(=O)NC3(CC(C)(C)C3)C(=O)N(C)[C@@H](C3CCCC3)C(=O)N(C)[C@H](C(=O)N(C)CC)CC(=O)N(C)[C@@H](CC)C(=O)N[C@@H]([C@@H](C)CC)C(=O)N(C)CC(=O)N(C)[C@H]3C/C=C\CCN(C3=O)[C@@H](Cc3ccc(C)cc3)C(=O)N(C)CC(=O)N[C@@H](CCc3ccc(C(F)(F)F)c(Cl)c3)C(=O)N2C1 [PP1880] | A (a compound having 10 or more and less than 20 is denoted as A) | B (a compound having 3 or more and less than 10 is denoted as B) |
| CCO[C@@H]1C[C@H]2C(=O)NC3(CC(C)(C)C3)C(=O)N(C)[C@@H](C3CCCC3)C(=O)N(C)[C@H](C(=O)N(CC)CC)CC(=O)N(C)[C@@H](CC)C(=O)N[C@@H]([C@@H](C)CC)C(=O)N(C)CC(=O)N(C)[C@H]3C/C=C\CCN(C3=O)[C@@H](Cc3ccc(C)cc3)C(=O)N(C)CC(=O)N[C@@H](CCc3ccc(C(F)(F)F)c(OC)c3)C(=O)N2C1 [PP1881] | A (a compound having 10 or more and less than 20 is denoted as A) | A (a compound having 10 or more and less than 20 is denoted as A) |
| CCO[C@@H]1C[C@H]2C(=O)NC3(CC(C)(C)C3)C(=O)N(C)[C@@H](C3CCCC3)C(=O)N(C)[C@H](C(=O)N(CC)CC)CC(=O)N(C)[C@@H](CC)C(=O)N[C@@H]([C@@H](C)CC)C(=O)N(C)CC(=O)N(C)[C@H]3C/C=C\CCN(C3=O)[C@@H](Cc3ccc(C)cc3)C(=O)N(C)CC(=O)N[C@@H](CCc3ccc(C(F)(F)F)c(Cl)c3)C(=O)N2C1 [PP1883] | A (a compound having 10 or more and less than 20 is denoted as A) | A (a compound having 10 or more and less than 20 is denoted as A) |
| CC[C@H](C)[C@@H]1NC(=O)[C@H](CC(C)C)N(C)C(=O)C[C@@H](C(=O)N(CC)CC)N(C)C(=O)[C@H](C2CCCC2)N(C)C(=O)C2(CCC2)NC(=O)[C@@H]2C[C@H](C)CN2C(=O)[C@H](CCc2ccc(C(F)(F)F)c(OC)c2)NC(=O)CN(C)C(=O)[C@H](Cc2ccc(C)cc2)N2CC/C=C\C[C@@H](C2=O)N(C)C(=O)CN(C)C1=O [PP1885] | AA (a compound having 20 or more is denoted as AA) | A (a compound having 10 or more and less than 20 is denoted as A) |
| CCO[C@@H]1C[C@H]2C(=O)NC3(CC(C)(C)C3)C(=O)N(C)[C@@H](C3CCCC3)C(=O)N(C)[C@H](C(=O)N(C)CC)CC(=O)N(C)[C@@H](CC)C(=O)N[C@@H]([C@@H](C)CC)C(=O)N(C)CC(=O)N(C)[C@H]3C/C=C\CCN(C3=O)[C@@H](Cc3ccc(C)cc3)C(=O)N(C)CC(=O)N[C@@H](CCc3cc(F)c(C(F)(F)F)c(F)c3)C(=O)N2C1 [PP1886] | A (a compound having 10 or more and less than 20 is denoted as A) | B (a compound having 3 or more and less than 10 is denoted as B) |
| CCO[C@@H]1C[C@H]2C(=O)NC3(CCC3)C(=O)N(C)[C@@H](C3CCCC3)C(=O)N(C)[C@H](C(=O)N(CC)CC)CC(=O)N(C)[C@@H](CC(C)C)C(=O)N[C@@H]([C@@H](C)CC)C(=O)N(C)CC(=O)N(C)[C@H]3C/C=C\CCN(C3=O)[C@@H](Cc3ccc(C)cc3)C(=O)N(C)CC(=O)N[C@@H](CCc3ccc(C(F)(F)F)c(OC)c3)C(=O)N2C1 [PP1887] | A (a compound having 10 or more and less than 20 is denoted as A) | B (a compound having 3 or more and less than 10 is denoted as B) |
| CCC[C@H]1C(=O)N[C@@H]([C@@H](C)CC)C(=O)N(C)CC(=O)N(C)[C@H]2C/C=C\CCN(C2=O)[C@@H](Cc2ccc(C)cc2)C(=O)N(C)CC(=O)N[C@@H](CCc2ccc(C(F)(F)F)c(OC)c2)C(=O)N2C[C@@H](C)C[C@H]2C(=O)NC2(CC(C)(C)C2)C(=O)N(C)[C@@H](C2CCCC2)C(=O)N(C)[C@H](C(=O)N(C)C)CC(=O)N1C [PP1888] | A (a compound having 10 or more and less than 20 is denoted as A) | B (a compound having 3 or more and less than 10 is denoted as B) |
